Results taken from patent US8202902B2, “Bivalent SMAC mimetics and the uses thereof” (The Regents of the University of Michigan, priority 2006, dated 2012).
Where two headings read alike, the source gives them in different places.

What was measured:
[1] = test system: MDA-MB-231 human breast cancer cell line; assay: Cell growth inhibition, WST-8 assay, MDA-MB-231; assay type: cell-based
Experimental: The rate of cell growth inhibition after treatment with different concentrations of the compound was determined using a WST-8 kit (2-(2-methoxy-4-nitrophenyl)-3-(4-nitrophenyl)-5-(2, 4 disulfophenyl)-2H-tetrazolium monosodium salt; Dojindo Molecular Technologies, Inc., Gaithersburg, Md.). WST-8 was added at a final concentration of 10% to each well, and then the plates were incubated at 37° C. for 2-3 hrs. The absorbance of the samples was measured at 450 nm using a ULTRA Tecan Reader (Molecular Device).

MAMLE-3M cells = assay: Trypan blue cell viability assay, MAMLE-3M; assay type: cell-based; details: 100 nM, 2 days
Experimental: (§1) 0.3×10^6 cells were seeded in 6 well plates and incubated at 37° C. in an atmosphere of 95% air and 5% CO2 without or with tested compound for 2 days. A 1:1 dilution of 0.4% Trypan blue (Invitrogen Corporation) was used to determine cell viability.

OVCAR-4 cells = assay: Trypan blue cell viability assay, OVCAR-4; assay type: cell-based; details: 100 nM, 2 days
Experimental: as §1

[2] = target: T1, XIAP protein containing both BIR2 and BIR3 domains (Homo sapiens, UniProt P98170); assay: Fluorescence-polarization based binding assay, XIAP BIR2-BIR3
T1 construct: XIAP protein containing both BIR2 and BIR3 domains; made in house

[3] = target: cIAP-1 protein containing both BIR2 and BIR3 domains (Homo sapiens, UniProt Q13490); assay: Fluorescence-polarization based binding assay, cIAP-1 BIR2-BIR3
[4] = test system: MDA-MB-231 breast cancer cell line; assay: Apoptosis assay (Annexin V/P.I.), MDA-MB-231; assay type: cell-based, human; details: 1 nM for 12 h
Experimental: (§2) Analysis of apoptosis was performed using an apoptosis detection kit (BioVision Research Products, Mountain View, Calif.) according to the manufacturer's protocol. Briefly, cells were treated with Smac mimetics for 12 hours, harvested and washed with ice-cold PBS. Cells were stained with Annexin V-FITC and Propidium iodide (P.I.) for 15 minutes at room temperature in the dark and immediately analyzed by FACS calibur flow cytometer (Becton Dickinson, Erembodegem, Belgium). Cells that were stained Annexin V (+) and P.I. (−) were considered early-stage apoptotic cells. Cells that were stained annexin V (+) and P.I. (+) were considered late-stage apoptotic cells and cells that were stained annexin V (−) and P.I. (+) were considered necrotic cells (FIG. 6).
(§3) Treatment with SM-164 at 1 nM for 12 h induced 32%, 33%, and 37% of the MDA-MB-231, SK-OV-3 and MALME-3M cells to undergo apoptosis, respectively (FIGS. 12-14).

[5] = test system: MALME-3M melanoma cell line; assay: Apoptosis assay (Annexin V/P.I.), MALME-3M; assay type: cell-based; details: 1 nM for 12 h
Experimental: as §2, §3

[6] = test system: MDA-MB-231, SK-OV-3 and MALME-3M cell lines; assay: Western blot analysis of caspase processing and PARP cleavage; assay type: cell-based
Experimental: as §3

[7] = test system: cIAP-1 in cancer cell lines; assay: Induction of cIAP-1 degradation in cancer cells; assay type: cell-based
[8] = test system: sensitive cancer cell lines (MDA-MB-231, MALME-3M, SK-OV-3); assay: XIAP knockdown by siRNA with exogenous TNFα, cell death; assay type: cell-based
Experimental: To investigate the role of XIAP in apoptosis induction by Smac mimetics, XIAP was knocked down in sensitive cancer cell lines. Because XIAP knockdown attenuated the production and secretion of TNFα (FIG. 34) (Gaither et al., Cancer Res. 67:11493 (2007)), exogenous TNFα was added in these XIAP knockdown experiments. […] For example, while SM-122 at 100 nM in combination with TNFα killed 25% of the MDA-MB-231 cells when control siRNA was used, the same combination killed 75% of the cells when XIAP was knocked down.
This is consistent with binding and functional data that indicates SM-164 binds to XIAP with a high affinity and is a potent antagonist of XIAP.

[9] = test system: MDA-MB-231 xenograft tumor tissues; assay: cIAP-1 degradation and apoptosis in MDA-MB-231 xenograft tumor and normal tissues; assay type: in vivo, mice
Experimental: To further investigate its therapeutic potential and in vivo mechanism, SM-164 was evaluated in the MDA-MB-231 xenograft model in mice. […] A single dose of SM-164 at 5 mg/kg decreased the level of cIAP-1 protein within 1 h and the effect lasted for at least 24 h. […] Apoptosis was examined by TUNEL staining using the In situ Cell Death Detection Kit (Roche Applied Science). To determine apoptosis in xenograft tumor and normal mouse tissues, severe combined immunodeficient (SCID) mice bearing established tumor were treated with Smac mimetics. Tissues were harvested and TUNEL staining was performed on formaldehyde-fixed, paraffin-embedded tissues. Paraffin-embedded tissue sections, mounted on slides, were deparaffinized and rehydrated by washing in a descending series of alcohol solutions (100%, 95%, 70% and 50%) and PBS. Antigen retrieval was performed by the microwave oven method using a commercially available antigen retrieval buffer (Covance Research Products, Inc.). Tissue sections were blocked with 3% BSA and 20% normal bovine serum in PBS for 30 min at room temperature (RT) to block unspecific binding sites. Tissue sections were incubated in 100 μl of TUNEL mixture [TUNEL mixture=10 μl of Enzyme solution (Vial 1)+90 μl of Label solution (Vial 2)] for 60 min at RT. Tissue section incubated in 90 μl of Label solution (Vial 2), instead of TUNEL mixture was used as negative control. Tissue section preincubated in DNase I recombination in 3000 U/ml of PBS, 1 mg/ml BSA for 10 min RT, followed by incubation with TUNEL mixture was used as positive control. Tissues slides were rinsed with PBS 5 min ×3, and stained with Propidium iodide and mounted and observed under a fluorescent microscope. […] The strong apoptosis induction by SM-164 was still evident at the 24 h time point. […] In contrast to the strong apoptosis induction and damage in xenograft tumor tissues, SM-164 has no effect on all the normal mouse tissues examined, including highly proliferative tissues such as the small intestine, stomach, liver and spleen (FIGS. 47-49).
Using the MDA-MB-231 xenograft model, SM-122 was also examined for its ability to induce cIAP-1 degradation and apoptosis in tumor tissues in vivo.

cellular XIAP = cellular XIAP (Homo sapiens, UniProt P98170); details: cited from earlier work
Sequence of cellular XIAP (P98170 whole entry): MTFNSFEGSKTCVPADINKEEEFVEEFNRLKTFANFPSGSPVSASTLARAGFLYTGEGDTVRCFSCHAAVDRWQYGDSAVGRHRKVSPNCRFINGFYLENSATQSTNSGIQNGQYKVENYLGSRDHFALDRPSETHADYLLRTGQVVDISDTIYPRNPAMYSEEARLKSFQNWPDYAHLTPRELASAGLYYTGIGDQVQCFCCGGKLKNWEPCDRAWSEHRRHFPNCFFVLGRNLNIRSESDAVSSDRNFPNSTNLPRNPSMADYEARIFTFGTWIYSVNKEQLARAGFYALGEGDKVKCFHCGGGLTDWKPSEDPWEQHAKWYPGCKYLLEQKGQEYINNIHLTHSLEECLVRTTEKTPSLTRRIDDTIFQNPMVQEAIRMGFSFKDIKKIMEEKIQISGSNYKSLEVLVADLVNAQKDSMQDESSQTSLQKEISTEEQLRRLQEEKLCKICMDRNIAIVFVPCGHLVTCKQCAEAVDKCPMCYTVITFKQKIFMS

Sequence of cIAP-1 protein containing both BIR2 and BIR3 domains (Q13490 174-352 limits assumed): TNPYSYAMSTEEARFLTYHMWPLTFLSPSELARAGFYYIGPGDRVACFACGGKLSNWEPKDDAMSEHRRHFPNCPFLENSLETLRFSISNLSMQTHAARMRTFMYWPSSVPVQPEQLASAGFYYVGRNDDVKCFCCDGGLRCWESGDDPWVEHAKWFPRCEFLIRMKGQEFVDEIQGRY
T1 sequence (P98170 120-356 limits assumed): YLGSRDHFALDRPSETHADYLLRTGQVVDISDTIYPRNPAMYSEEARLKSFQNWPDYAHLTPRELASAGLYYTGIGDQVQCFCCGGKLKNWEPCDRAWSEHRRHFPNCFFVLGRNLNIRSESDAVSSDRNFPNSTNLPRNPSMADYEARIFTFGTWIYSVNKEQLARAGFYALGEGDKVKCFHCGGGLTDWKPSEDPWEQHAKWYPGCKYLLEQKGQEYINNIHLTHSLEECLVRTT

## CN[C@@H](C)C(=O)N[C@H]1CCCC[C@H]2CC[C@@H](C(=O)N[C@@H](c3ccccc3)c3cn(CCCCc4ccc(CCCCn5cc([C@@H](NC(=O)[C@@H]6CC[C@@H]7CCCC[C@H](NC(=O)[C@H](C)NC)C(=O)N76)c6ccccc6)nn5)cc4)nn3)N2C1=O [SH-164]
[1]; MDA-MB-231, 96 h, 4 days, WST-8, read-out: IC50 cell growth inhibition
  IC50: 1.4 nM
[1]; MDA-MB-231, read-out: IC50 values (nM) In WST-assay (MDA-MB-231)
  IC50: < 10 nM
MAMLE-3M cells
  cell death: at least 70%
OVCAR-4 cells
  cell death: at least 70%
[2]
  more potent than monovalent SM-122 for binding to XIAP: 300 times
[3]
  Ki: 0.31 nM
  more potent than SM-122 to cIAP-1: 9 times
[4]
  cells undergoing apoptosis: 32%
[5]
  cells undergoing apoptosis: 37%
[6]; SM-164 at 1 nM
  induction of cell death, caspase processing and PARP cleavage, comparison: as effective as SM-122 at 1,000 nM
[6]; concentration as low as 1 nM
  levels of pro-caspase-3, -8 and -9 (cleaved PARP increased): markedly decreased
[7]; 1 nM for 60 min, sensitive cancer cell lines
  cIAP-1 level: reduced cIAP-1 markedly
[7]; 100 nM, SK-OV-3 cell line (FIG. 28)
  cIAP-1 degradation: rapid cIAP-1 degradation
[7]; 10-100 nM, sensitive cancer cell lines
  cIAP-1 level / degradation: undetectable levels
[7]; MDA-MB-231 and SK-OV-3, 12-24 h time points
  levels of XIAP protein: reduced
[7]; resistant cancer cell lines
  cIAP-1 degradation: rapid cIAP-1 degradation
[8]; 3 and 10 nM, with or without TNFα
  cell death induction: effectively induced cell death
[8]; presence of exogenous TNFα
  sensitization by knockdown of XIAP: only modestly sensitized
[9]; 3 h time point, persisted for 24 h
  activation of caspase-8, -9, and -3 and cleavage of PARP: Robust activation
[9]; 6 h time point
  TUNEL positive tumor cells: more than 50%
[9]; mouse, in vivo
  H&E staining of tumor tissues: profound damage to tumor tissues
[9]; single dose 5 mg/kg
  duration of cIAP-1 decrease: at least 24 h
  time to decrease of cIAP-1 protein level in tumor: ≤ 1 h
[9]; small intestine, stomach, liver, spleen etc.
  effect on normal mouse tissues: no effect
Cellular XIAP
  more potent than SM-122 in competing off a biotinylated Smac mimetic to cellular XIAP: > 100 times
